# Counter-ions that a name gives are not always drawn.
# Experiments:
# PKB-PIF = target: T1, PKB-PIF (Homo sapiens, UniProt P31751); assay: Measurement of PKB kinase inhibitory activity (IC50), 33P-ATP phosphocellulose filter assay; type: biochemical; settings: 0.6 nM enzyme, 30 μM ATP, 25 μM AKTide-2T substrate, 20 minutes; read-out: IC50, concentration of test compound required to inhibit 50% of the PKB activity
# T1 construct: made in house
# Description: The inhibition of protein kinase B (PKB) activity by compounds can be determined essentially as described by Andjelkovic et al. (Mol. Cell. Biol. 19, 5061-5072 (1999)) but using a fusion protein described as PKB-PIF and described in full by Yang et al (Nature Structural Biology 9, 940-944 (2002)). […] A final concentration of 0.6 nM enzyme is used in a buffer that includes 20 mM MOPS pH 7.2, 30 μM ATP/γ^33P-ATP and 25 μM substrate. Compounds are added in DMSO solution to a final DMSO concentration of 2.5%. The reaction is allowed to proceed for 20 minutes before addition of excess orthophosphoric acid to quench activity. The reaction mixture is transferred to a phosphocellulose filter plate where the peptide binds and the unused ATP is washed away. After washing, scintillant is added and the incorporated activity measured by scintillation counting.
# The % inhibition of the PKB activity is calculated and plotted in order to determine the concentration of test compound required to inhibit 50% of the PKB activity (IC50).
# PKA catalytic domain = target: T2, PKA catalytic domain (Homo sapiens, UniProt P17612); assay: Measurement of PKA kinase inhibitory activity (IC50), 33P-ATP filter plate assay; type: biochemical; settings: 1 nM enzyme, 40 μM ATP, 20 minutes; read-out: IC50, concentration of test compound required to inhibit 50% of the PKA activity
# T2 construct: using the PKA catalytic domain from Upstate Biotechnology (#14-440); purchased Upstate Biotechnology 14-440
# Description: Compounds of the invention can be tested for PK inhibitory activity using the PKA catalytic domain from Upstate Biotechnology (#14-440) and the 9 residue PKA specific peptide ([…]), also from Upstate Biotechnology (#12-257), as the substrate. A final concentration of 1 nM enzyme is used in a buffer that includes 20 mM MOPS pH 7.2, 40 μM ATP/γ^33P-ATP and […] substrate. Compounds are added in dimethylsulphoxide (DMSO) solution to a final DMSO concentration of 2.5%. The reaction is allowed to proceed for 20 minutes before addition of excess orthophosphoric acid to quench activity. Unincorporated γ^33P-ATP is then separated from phosphorylated proteins on a Millipore MAPH filter plate. The plates are washed, scintillant is added and the plates are then subjected to counting on a Packard Topcount.
# The % inhibition of the PKA activity is calculated and plotted in order to determine the concentration of test compound required to inhibit 50% of the PKA activity (IC50).
# T1 sequence (P31751 with tags, fused parts or gaps limits assumed): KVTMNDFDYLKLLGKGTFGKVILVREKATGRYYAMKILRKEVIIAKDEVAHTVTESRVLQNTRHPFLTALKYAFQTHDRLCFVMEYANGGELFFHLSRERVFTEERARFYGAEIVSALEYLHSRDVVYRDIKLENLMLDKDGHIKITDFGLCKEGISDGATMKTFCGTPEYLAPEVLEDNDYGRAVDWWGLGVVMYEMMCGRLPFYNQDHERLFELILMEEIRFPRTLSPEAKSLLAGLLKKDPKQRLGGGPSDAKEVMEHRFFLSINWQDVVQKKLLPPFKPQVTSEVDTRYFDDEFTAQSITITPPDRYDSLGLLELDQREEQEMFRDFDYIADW
Compound,IC50 (PKB-PIF) [nM],IC50 (PKA catalytic domain) [nM]
"NCC1(c2cccc(-c3ccccc3)c2)CCN(c2ncnc3[nH]ccc23)CC1 [Example 4, C-[4-Biphenyl-3-yl-1-(7H-pyrrolo[2,3-d]pyrimidin-4-yl)piperidin-4-yl]methylamine]",< 1000,< 10000
"NC1(C(=O)NCc2ccc(Cl)c(-c3ccccc3)c2)CCN(c2ncnc3[nH]ccc23)CC1 [Example 2, 4-Amino-1-(7H-pyrrolo[2,3-d]pyrimidin-4-yl)-piperidine-4-carboxylic acid (6-chloro-biphenyl-3-ylmethyl)-amide hydrochloride]",< 1000,
"COc1ccc(-c2cccc(C3(CN)CCN(c4ncnc5[nH]ccc45)CC3)c2)cc1 [Example 5, C-[4-(4′-Methoxybiphenyl-3-yl)-1-(7H-pyrrolo[2,3-d]pyrimidin-4-yl)piperidin-4-yl]methylamine]",< 1000,
"CC(C)(C)c1ccc(CC2(N)CCN(c3ncnc4[nH]ncc34)CC2)cc1 [Example 13, 4-(4-tert-Butyl-benzyl)-1-(1H-pyrazolo[3,4-d]pyrimidin-4-yl)-piperidin-4-ylamine]",< 1000,

# Continued, values first:
IC50 (PKB-PIF) [nM],IC50 (PKA catalytic domain) [nM],Compound
< 1000,,"NCC1(c2ccc(OC(F)(F)F)cc2)CCN(c2ncnc3[nH]c(=O)[nH]c23)CC1 [Example 10, 6-[4-Aminomethyl-4-(4-trifluoromethoxyphenyl)piperidin-1-yl]-7,9-dihydropurin-8-one]"
< 1000,< 10000,"NC1(C(=O)NCc2ccc(Cl)cc2F)CCN(c2ncnc3[nH]c(=O)[nH]c23)CC1 [Example 7, 4-Amino-1-(8-oxo-8,9-dihydro-7H-purin-6-yl)-piperidine-4-carboxylic acid 4-chloro-2-fluoro-benzylamide]"
,< 10000,"NC1(C(=O)NCc2ccc(Cl)cc2)CCN(c2ncnc3[nH]c(=O)[nH]c23)CC1 [Example 6, 4-Amino-1-(8-oxo-8,9-dihydro-7H-purin-6-yl)-piperidine-4-carboxylic acid 4-chloro-benzylamide]"
< 1000,,"NC1(Cc2ccc(Cl)cc2)CCN(c2ncnc3[nH]c(=O)[nH]c23)CC1 [Example 11, 6-[4-Amino-4-(4-chlorobenzyl)piperidin-1-yl]-7,9-dihydropurin-8-one]"
< 1000,< 10000,"NC1(c2ccc(Cl)cc2)CCN(c2ncnc3[nH]c(=O)[nH]c23)CC1 [Example 12, 6-[4-Amino-4-(4-chlorophenyl)piperidin-1-yl]-7,9-dihydropurin-8-one]"

# From patent publication US20100016340A1, “PHARMACEUTICAL COMPOUNDS” (Astex Therapeutics Limited, priority 2006, published 2010)
